# Results published in patent publication US12208097B2, “Protein kinase C inhibitors for treatment of uveal melanoma” (NOVARTIS AG, priority 2017, dated 2025).
# How the values were obtained:
# [1] = test system: MP46 (GNAQmut) uveal melanoma xenograft; experiment: Patient derived uveal melanoma xenograft model MP46; type: in vivo, female SCID mice; settings: 35 days post dosing
# Text: The anti-tumor activity and tolerability of Compound I (i.e., LXS196) and the MDM2 inhibitor (Compound III or its salt thereof) was investigated in vivo using two patient derived uveal melanoma xenograft models, MP46 (GNAQmut) and MP55 (GNA11mut/BAP1 null).
# (§1) MP46 and MP55 uveal melanoma tumors were established in female SCID mice by subcutaneous implantation of 3×3×3 mm tumor fragments into the flank of each mouse. When tumors reached approximately 100 mm^3, mice were randomized according to tumor volume into treatment groups (n=8-10/group). Test agents were administered orally once (QD) or twice daily (BID) at the dose levels indicated. Tumor volumes of treatment groups are plotted from the time the treatment groups were randomized, and dosing commenced.
# [2] = test system: MP55 (GNA11mut/BAP1 null) uveal melanoma xenograft; experiment: Patient derived uveal melanoma xenograft model MP55; type: in vivo, female SCID mice
# Text: as §1, with “The anti-tumor activity and tolerability of Compound […]196) and the MDM2 inhibitor (Compound III or its salt thereof) was investigated in vivo using two patient derived uveal melanoma xenograft models, MP46 (GNAQmut) and MP55 (GNA11mut/BAP1 null). MP46” for “MP46”
# [3] = Phase I trial of Compound I in patients with metastatic uveal melanoma: safety, DLT, MTD/RDE; type: in vivo
# Description: (§2) A phase 1, multicenter, open-label, single-arm study of Compound I was performed in patients with metastatic uveal melanoma. A Bayesian logistic regression model, employing the escalation with overdose control principle, was used to guide the dose escalation and to estimate the maximum tolerated dose (MTD)/recommended dose for expansion (RDE). Safety was described using incidence of adverse events (AEs) by relation and severity of the AE graded according to the Common Terminology Criteria for AEs (CTCAE, v4.03). Overall response rate was defined as per Response Evaluation Criteria in Solid Tumors (RECIST, v1.1).
# (§3) Patients eligible for inclusion in this study have to meet all of the following key criteria: • Metastatic uveal melanoma (histologically or cytologically confirmed) that is judged to be progressive; patients may be treatment naive or have had any number of lines of prior therapy. • Measurable disease, defined as at least one lesion that can be accurately measured in at least one dimension (longest diameter to be recorded) as >20 mm with conventional techniques or as >10 mm with CT scan. • ECOG performance status ≤1
# Patients eligible for this study must not meet any of the following criteria: • Malignant disease other than that being treated in this study • Symptomatic or untreated leptomeningeal or brain metastases or spinal cord compression. Treated brain metastases must have been stable for at least 1 month. • Impaired cardiac function or clinically significant cardiac diseases • Patients with abnormal laboratory values as defined by the protocol • Systemic anti-cancer therapy within 2 weeks of the first dose of study treatment. For cytotoxic agents that have major delayed toxicity, e.g. mitomycin C and nitrosoureas, and for anti-PD-1 or PD-L1 antibodies 4 weeks is indicated as the washout period. For patients receiving a CTLA-4 antagonist or vaccine as anticancer therapy, 6 weeks is indicated as the washout period. Patients must have recovered or stabilized from toxicities related to their previous treatment except for alopecia.
# As of the data of Jun. 12, 2017, 55 patients received Compound I (i.e., LXS196) at doses ranging from 100 mg to 1000 mg once daily (QD; 38 patients or “pts”) and 200 mg to 400 mg twice daily (BID; 17 pts). Dose limiting toxicities (DLTs) were reported in 7 of 38 pts (QD schedule) and in 1 of 12 pts (BID schedule). The most common DLT was hypotension, manageable with LXS196 interruption and dose reduction. MTDs were determined at 500 mg QD and 400 mg BID. Due to better overall tolerability the RDE is 300 mg BID. Most common AEs (all grade, in ≥20% of pts) suspected related to LXS196 in pts across both schedules (n=55) were nausea (58.2%), diarrhea (32.7%), vomiting (25.5%), hypotension (25.5%), fatigue (20%) and asthenia (20%). The majority of GI and constitutional AEs were grade (gr) ½. Gr ¾ AEs suspected related to LXS196 were reported in 12 pts (21.8%), the most common being hypotension (10.9%). All other gr ¾ AEs occurred in ≤2 pts (3.6%) each.
# [4] = Phase I trial: pharmacokinetic (PK) studies; type: in vivo, human
# Description: as §2
# (§4) LXS196 led to reduction of phosphorylated myristoylated, alanine-rich C kinase substrate (pMARCKS) and phosphorylated PKC delta (pPKC delta), evident of target engagement in on-treatment tumor biopsies.
# [5] = test system: phosphorylated myristoylated, alanine-rich C kinase substrate (pMARCKS); experiment: Phase I trial: target engagement in on-treatment tumor biopsies (pMARCKS); type: in vivo, human
# Text: as §4
# [6] = test system: phosphorylated PKC delta (pPKC delta); experiment: Phase I trial: target engagement in on-treatment tumor biopsies (pPKC delta); type: in vivo, human
# Text: as §4
# [7] = test system: metastatic uveal melanoma; experiment: Phase I trial: tumor response per RECIST v1.1; type: in vivo, human; settings: in 68 evaluable pts
# Description: as §2, §3
# In 68 evaluable pts, 6 had confirmed partial responses (PR) per RECIST v 1.1 (300 mg QD, 500 mg QD, 200 mg BID, 2 at 300 mg BID, 400 mg BID). A further 45 pts had stable disease as best overall response. […]
# UM cell lines = settings: with RITA and Topotecan; cited from earlier work
structure (smiles),measurement,setting,value
"COc1cc2c(cc1OC(C)C)[C@H](c1ccc(Cl)cc1)N(c1ccc(N(C)C[C@H]3CC[C@H](N4CCN(C)C(=O)C4)CC3)cc1)C(=O)C2 [Compound III, (S)-1-(4-chloro-phenyl)-7-isopropoxy-6-methoxy-2-(4-{methyl-[4-(4-methyl-3-oxo-piperazin-1-yl)-trans-cyclohexylmethyl]-amino}-phenyl)-1,4-dihydro-2H-isoquinolin-3-one]",treatment/control (T/C),"[1]; MP46, 100 mg/kg QD oral",39%
same,T/C,"[2]; MP55, 100 mg/kg QD oral",20%
"CC1(N)CCN(c2cccnc2NC(=O)c2nc(-c3ncccc3C(F)(F)F)cnc2N)CC1 [LXS196, 3-amino-N-(3-(4-amino-4-methylpiperidin-1-yl)pyridin-2-yl)-6-(3-(trifluoromethyl)pyridin-2-yl)pyrazine-2-carboxamide]","AE asthenia, all grade, suspected related","[3]; human, in vivo",20%
same,"AE diarrhea, all grade, suspected related","[3]; human, in vivo",32.7%
same,"AE fatigue, all grade, suspected related","[3]; human, in vivo",20%
same,"AE hypotension, all grade, suspected related","[3]; human, in vivo",25.5%
same,"AE nausea, all grade, suspected related","[3]; human, in vivo",58.2%
same,"AE vomiting, all grade, suspected related","[3]; human, in vivo",25.5%
same,"All other gr ¾ AEs, each, number of patients","[3]; human, in vivo",≤ 2 pts
same,"All other gr ¾ AEs, each, share of patients","[3]; human, in vivo",≤ 3.6%
same,"Gr ¾ AEs suspected related, number of patients","[3]; human, in vivo",12 pts
same,"Gr ¾ AEs suspected related, share of patients","[3]; human, in vivo",21.8%
same,Gr ¾ hypotension (most common gr ¾ AE),"[3]; human, in vivo",10.9%
same,Grade of the majority of GI and constitutional AEs,"[3]; human, in vivo",grade (gr) ½
same,Most common DLT,"[3]; human, in vivo",hypotension
same,RDE (recommended dose for expansion),"[3]; human, in vivo",300 mg BID
same,MTD,[3]; once daily schedule,500 mg QD
same,MTD,[3]; twice daily schedule,400 mg BID
same,Exposure,[4]; doses above 300 mg QD and 200 mg BID,in the efficacious range from preclinical projections
same,half-life,"[4]; human, in vivo, oral, consistent across different doses, read-out: terminal T½ (converted)",~10 h
same,Tmax,"[4]; human, in vivo, post dose, patients, oral",~1 h
same,Effect on pMARCKS,[5],reduction
same,Effect on pPKC delta,[6],reduction
same,Stable disease as best overall response,[7],45 pts
same,Confirmed partial responses (PR) per RECIST v 1.1,"[7]; 300 mg QD, 500 mg QD, 200 mg BID, 2 at 300 mg BID, 400 mg BID",6 pts
same,regression,"[1]; MP46, 120 mg/kg BID oral",63%
same,T/C,"[2]; MP55, 120 mg/kg BID oral",20%
COc1ccc(C2=N[C@@H](c3ccc(Cl)cc3)[C@@H](c3ccc(Cl)cc3)N2C(=O)N2CCNC(=O)C2)c(OC(C)C)c1 [Nutlin-3],Combination effect on growth inhibition,UM cell lines,synergistically
